Here are results for seven molecules from patent publication US8163479B2, “Specific substrates for O6-alkylguanine-DNA alkyltransferase” (Ecole Polytechnique Federale de Lausanne, priority 2004, dated 2012).

Changes are numbered by the printed parent chain. Residues, ends and D or L forms follow the SMILES beside them. *: point of attachment. X1 = CN(CCCC(=O)NCc1ccc(COc2nc(N)nc3[nH]c(CCCNC(=O)CN4C(=O)C[C@H](*)C4=O)nc23)cc1)C(=O)c1ccccc1-c1c2ccc(=N)c(S(=O)(=O)O)c-2oc2c(S(=O)(=O)O)c(N)ccc12

One data set addresses T1, AGT21 (AGT mutant) (Homo sapiens, UniProt P16455, A127T/C150N/C62A/K125A/N157G/Q115S/Q116H/R128A/R135S/S151I/S152N/S159E).
T1 construct: and truncation at 182 is prepared according to the same method; GST (N); made in house; host or cells: E. coli BL21
T1 sequence (P16455 1-182 C62A/Q115S/Q116H/K125A/A127T/R128A/R135S/C150N/S151I/S152N/N157G/S159E): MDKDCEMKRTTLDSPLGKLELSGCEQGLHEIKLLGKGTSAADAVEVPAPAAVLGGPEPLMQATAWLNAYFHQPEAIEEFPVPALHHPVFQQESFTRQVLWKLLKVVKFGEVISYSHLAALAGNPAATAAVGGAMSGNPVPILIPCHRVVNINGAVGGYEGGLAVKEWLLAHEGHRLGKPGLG
In words: Fluorescence-appearance assay and reactivity comparisons. The class given is biochemical. The settings on record: for reaction rate relative to the compound unsubstituted at C^8/N^9 / reaction rate relative to the corresponding N^9-substituted compound: AGT21; for reaction rate relative to the compound unsubstituted at C^8/N^9: comparator BG-TMR, BG-Atto488 or BG-FL; for reaction rate relative to the corresponding N^9-substituted compound: comparator compound 35, 27 or 29. As for the experimental part:
A third AGT mutant (“AGT21”) related to AGTM and containing the mutations Cys62Ala, Gln115Ser, Gln116His, Lys125Ala, Ala127Thr, Arg128Ala, Arg135Ser, Cys150Asn, Ser15111e, Ser152Asn, Asn157Gly, Ser159G1u, and truncation at 182 is prepared according to the same method.
In a further assay, purified protein of AGT mutants AGTM and AGT21 (Example 47) at a protein concentration of 10 μM are incubated with 100 nM N-[4-(2-Amino-9-(3-QSY9-aminopropyl)-purin-6-yloxymethyl)-benzyl]-tetramethylrhodamine-5(6)-carboxamide (35, N^9-QSY9-BG-TMR, Example 19) in a buffer containing 100 mM NaCl, 50 mM Tris, pH 8.0, 0.1% Tween, 1 mM DTT, at room temperature. The fluorescence intensity (531 nm excitation/595 nm emission) is followed using a Victor2 microplate reader (Perkin Elmer).
(§1) Further reactivity comparisons gave the following results: […]

The target in another data set is T2, AGTM (AGT mutant) (Homo sapiens, UniProt P16455, A127T/C150N/C62A/G131K/G132T/K125A/M134L/N157G/Q115S/Q116H/R128A/R135S/S151I/S152N/S159E).
T2 construct: a truncation after codon 182 into the mutant AGT gene; GST (N); made in house; host or cells: E. coli BL21
T2 sequence (P16455 1-182 C62A/Q115S/Q116H/K125A/A127T/R128A/G131K/G132T/M134L/R135S/C150N/S151I/S152N/N157G/S159E): T1 sequence (P16455 1-182 C62A/Q115S/Q116H/K125A/A127T/R128A/R135S/C150N/S151I/S152N/N157G/S159E) with G131K, G132T, M134L
Described as above. The following applies: for reaction rate relative to the compound unsubstituted at C^8/N^9 / reaction rate relative to the corresponding N^9-substituted compound: AGTM; for reaction rate relative to the compound unsubstituted at C^8/N^9: comparator BG-TMR, BG-Atto488 or BG-FL; for reaction rate relative to the corresponding N^9-substituted compound: comparator compound 35, 27 or 29. The class given is biochemical.
Description: A second AGT mutant (“AGTM”) containing the mutations Cys62Ala, Gln115Ser, Gln116His, Lys125Ala, Ala127Thr, Arg128Ala, Gly131Lys, Gly132Thr, Met134Leu, Arg135Ser, Cys150Asn, Ser15111e, Ser152Asn, Asn157Gly, Ser159G1u, and truncation at 182 is derived from the mentioned above AGT mutant by subsequent introduction of further mutations and a truncation after codon 182 into the mutant AGT gene. Subsequent PCR amplifications gives rise to the further mutated gene that is subcloned into pGEX2T as described for the first mutant. The GST-fusion protein is expressed and purified as well.
In a further assay, purified protein of AGT mutants AGTM and AGT21 (Example 47) at a protein concentration of 10 μM are incubated with 100 nM N-[4-(2-Amino-9-(3-QSY9-aminopropyl)-purin-6-yloxymethyl)-benzyl]-tetramethylrhodamine-5(6)-carboxamide (35, N^9-QSY9-BG-TMR, Example 19) in a buffer containing 100 mM NaCl, 50 mM Tris, pH 8.0, 0.1% Tween, 1 mM DTT, at room temperature. […]
as §1

The next data set addresses T3, wild type hAGT (Homo sapiens, UniProt P16455).
T3 sequence (P16455 1-207): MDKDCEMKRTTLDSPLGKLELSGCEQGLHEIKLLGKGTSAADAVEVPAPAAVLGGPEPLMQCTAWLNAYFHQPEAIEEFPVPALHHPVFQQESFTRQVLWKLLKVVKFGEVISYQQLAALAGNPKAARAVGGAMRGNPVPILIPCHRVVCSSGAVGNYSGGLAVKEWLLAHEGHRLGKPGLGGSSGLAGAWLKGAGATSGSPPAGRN
The following applies: known values; cited from earlier work.

Data set [1] concerns the target T4, AGT26-CaaX fusion protein in CHO cells deficient in endogenous wildtype AGT (Homo sapiens, UniProt P16455, A127T/C150S/C62A/G131K/G132T/K125A/M134L/N157G/R128A/R135S/S159E).
T4 construct: and truncation at 182 is also prepared according to the same method; expressed in transfected cells
T4 sequence (P16455 1-182 C62A/K125A/A127T/R128A/G131K/G132T/M134L/R135S/C150S/N157G/S159E): T1 sequence (P16455 1-182 C62A/Q115S/Q116H/K125A/A127T/R128A/R135S/C150N/S151I/S152N/N157G/S159E) with S115Q, H116Q, G131K, G132T, M134L, N150S, I151S, N152S
The data set is classed as cell-based. As for the experimental part: A fourth AGT mutant (“AGT26”) related to AGTM and containing the mutations Cys62Ala, Lys125Ala, Ala127Thr, Arg128Ala, Gly131Lys, Gly132Thr, Met134Leu, Arg135Ser, Cys150Ser, Asn157Gly, Ser159G1u, and truncation at 182 is also prepared according to the same method.
A vector for a fusion of AGT26 and the CaaX-farnesylation signal is transfected into CHO cells deficient in endogenous wildtype AGT. Stable transfectants are selected under geneticine treatment. For that purpose the gene of AGT26 is cloned into pCMV-Script (Stratagene) followed on its C-terminus by the CaaX-box sequence encoded in the pECP-F (Clontech). The final protein sequence (position 690-1271) yields a single polypeptide with 194 amino acids. […] All imaging is done with an inverted Zeiss fluorescence microscope Axiovert 40 CFL with filter sets for tetramethylrhodamine and for fluorescein.

[2] abbreviates: 10 μM protein, 100 nM substrate, over 1 hour at 25° C.
Setting [3] is: fluorescence 490 nm excitation / 535 nm emission.

Take “N-[4-(2-Amino-8-(3-(4-[4-dimethylamino-phenyl]-azo-benzoyl)-amino-propyl)-9H-purin-6-yloxymethyl)-benzyl]-fluoresceine-5(6)-carboxamide [compound 44]”: at AGT21 (AGT mutant), the “reaction rate relative to the compound unsubstituted at C^8/N^9” value is “two times faster” and the “reaction rate relative to the corresponding N^9-substituted compound” value is on record as “at least four times faster”. On AGTM (AGT mutant), the “reaction rate relative to the compound unsubstituted at C^8/N^9” value is recorded as “two times faster” and the “reaction rate relative to the corresponding N^9-substituted compound” value is reported as “at least ten times faster”.

Regarding “N-[4-(2-Amino-9-(3-QSY9-aminopropyl)-purin-6-yloxymethyl)-benzyl]-tetramethylrhodamine-5(6)-carboxamide [compound 35]”, the “increase of tetramethylrhodamine fluorescence” value at AGT21 (AGT mutant) (setting [2]) is “about 80%”; at AGTM (AGT mutant) (setting [2]), “less than five percent”.

With “N-[4-(2-Amino-8-(3-QSY9-aminopropyl)-9H-purin-6-yloxymethyl)-benzyl]-tetramethylrhodamine-5(6)-carboxamide [compound 48]”, on AGT21 (AGT mutant), the “reaction rate relative to the compound unsubstituted at C^8/N^9” value was “two times faster” and the “reaction rate relative to the corresponding N^9-substituted compound” value is given as “at least four times faster”. Besides, on AGTM (AGT mutant), the “reaction rate relative to the compound unsubstituted at C^8/N^9” value is on record as “two times faster” and the “reaction rate relative to the corresponding N^9-substituted compound” value was “at least ten times faster”.

In the case of `CN(CCCC(=O)NCc1ccc(COc2nc(N)nc3[nH]c(CCCNC(=O)c4ccc(/N=N/c5ccc(N(C)C)cc5)cc4)nc23)cc1)C(=O)c1ccccc1-c1c2ccc(=N)c(S(=O)(=O)O)c-2oc2c(S(=O)(=O)O)c(N)ccc12` [compound 45, N-[4-(2-Amino-8-(3-(4-[4-dimethylamino-phenyl]-azo-benzoyl)-aminopropyl)-9H-purin-6-yloxymethyl)-benzyl]-ATTO488-amide], the “reaction rate relative to the compound unsubstituted at C^8/N^9” value at AGT21 (AGT mutant) is listed as “two times faster”; at AGTM (AGT mutant) it was “three times faster”. Besides, the “reaction rate relative to the corresponding N^9-substituted compound” value was “at least four times faster” at AGT21 (AGT mutant) and “at least fifteen times faster” at AGTM (AGT mutant). Moreover, the “increase in reactivity compared to BG-Atto488” value at AGT21 (AGT mutant) (setting [3]) is “twofold”. The “increased reactivity compared to BG-Atto488” value on AGTM (AGT mutant) (setting [3]) is given as 3 fold.

As to `Nc1nc(OCc2ccccc2)c2ncn(C3C[C@H](O)[C@@H](CO)O3)c2n1` (stereo partly shown) [N^9-desoxyribosyl-O^6-benzylguanine], the “rate constant of the reaction with wild type hAGT” value on wild type hAGT is given as 340 s^−1M^−1.

Take `CN(CCCC(=O)NCc1ccc(COc2nc(N)nc3[nH]c(CCCNC(=O)CN4C(=O)C[C@H](SC[C@H](NC(=O)[C@H](CCCNC(=N)N)NC(=O)[C@H](CCCNC(=N)N)NC(=O)[C@H](CCCNC(=N)N)NC(=O)[C@H](CCCNC(=N)N)NC(=O)[C@H](CCCNC(=N)N)NC(=O)[C@H](CCCNC(=N)N)NC(=O)[C@H](CCCNC(=N)N)NC(=O)[C@H](CCCNC(=N)N)NC(=O)[C@H](CCCNC(=N)N)NC(=O)[C@@H](N)Cc5ccc(O)cc5)C(=O)O)C4=O)nc23)cc1)C(=O)c1ccccc1-c1c2ccc(=N)c(S(=O)(=O)O)c-2oc2c(S(=O)(=O)O)c(N)ccc12` [compound 60, Conjugate O^6-ATT0488-C^8-TyrArg9Cys] (H-YRRRRRRRRRC(X1)-OH; N-terminus and C-terminus assumed): the cell membrane permeability result in data set [1] is on record as “increased permeability”.

In the case of “O^6-tetramethylrhodamine-benzylguanine [BG-TMR, reference compound]”, in data set [1] (5 μM, 30 min, CHO cells with AGT26-CaaX), the “labeling of cells (fluorescence microscopy)” value is given as “clear signal at the cell membrane”.
